# In patent publication US20070014788A1, “Laminin-5 modulators and uses thereof” (Novo Nordisk A/S, priority 2004, published 2007):
# B1: TRAIL: TNF-related apoptosis-inducing ligand (protein, UniProt P50591 1-281, looked up)
# Tumor necrosis factor ligand …: MAMMEVQGGPSLGQTCVLIVIFTVLLQSLCVAVTYVYFTNELKQMQDKYSKSGIACFLKEDDSYWDPNDEESMNSPCWQVKWQLRQLVRKMILRTSEETISTVQEKQQNISPLVRERGPQRVAAHITGTRGRSNTLSSPNSKNEKALGRKINSWESSRSGHSFLSNLHLRNGELVIHEKGFYYIYSQTYFRFQEEIKENTKNDKQMVQYIYKYTSYPDPILLMKSARNSCWSKDAEYGLYSIYQGGIFELKENDRIFVSVTNEHLIDMDHEASFFGAFLVG
# System: SW480 cells
# Test: Cell death (LDH release) of transfected SW480 cells, alone and with anti-cancer compounds
# Assay type: cell-based
# Conditions: low dose of compound, 24 hours
# Method: SW480 cells obtained from ATCC were grown in DME:F12 supplemented with 10% foetal calf serum and routinely checked for being mycoplasma free. For transfection, the cells were seeded as 3×10^5 cells/2 ml in 6 well plates. Transfection was carried out after cells have attached at least overnight using Lipofectamin 2000 (Life Technologies). Liposomes were formed in medium without serum by mixing 10 μl lipofectamine 2000 and 3 μg plasmid DNA or 15 μl 20 pmol/μl oligonucleotide in a total volume of 250 μl. After liposome formation, the mixture was added to cells and incubated 5 hours in cell incubator before medium was changed to complete medium with serum. After 24 hours, cells were trypsinised and moved to 96 well plates to analyse for death induction.
# The cells were allowed to plate for 24 hours before dosing with the indicated compounds, all in triplicate. The compounds were solubilised in DMSO and added to cells in medium with no more than 0.1% v/v DMSO. Triplicate cell cultures for basal cell death (untreated) and maximal response (complete lysis) were included as well as triplicate media samples for background determination. Cells were incubated for additional 24 hours. The maximal response (100% cell death) was induced by adding 1% v/v Triton X100 to triplicate cell cultures 5 min before medium was collected for detection of lactate dehydrogenase (LDH) activity. Medium from all samples were used in the detection of LDH using a kit from Takara Bio Inc.
row,Molecule,effect of added compound on the increased cell death by siRNA against gamma2
1,CN[C@@H]1C[C@H]2O[C@@](C)([C@@H]1OC)n1c3ccccc3c3c4c(c5c6ccccc6n2c5c31)C(=O)NC4 [staurosporine],did not attenuate
2,C/C=C(/C)C(=O)O[C@H]1C(C)=C2[C@H]([C@@H]1OC(=O)CCCCCCC)[C@@](C)(OC(C)=O)C[C@H](OC(=O)CCC)[C@@]1(O)[C@H]2OC(=O)[C@@]1(C)O [thapsigargin],did not attenuate
3,tunicamycin,did not attenuate
4,B1,did not attenuate
